Measurements published in patent publication US12391737B2, “Soluble NPY2 receptor agonists” (Boehringer Ingelheim International GmbH, priority 2020, dated 2025).
*1 amine or outer side, *2 acyl side, *3 side chain or, on linkers, in order; H or OH if unused. Where a SMILES comes first, the peptide text is derived from it. Side-chain parts run from the residue outwards. The star is where a group is joined. C18 diacid = O=C(O)CCCCCCCCCCCCCCCCC(=O)*; γGlu = O=C(O)[C@H](CCC(=O)[*:2])N[*:1]; Isovaleryl = CC(C)CC(=O)*; Ahx = NCCCCCC(=O)O

Key:
[1] = target: T1, Human Neuropeptide Y2 Receptor (Homo sapiens, UniProt P49146); assay: Radioligand binding competition assay (RLB); conditions: Table 3, 125I-PYY(1-36) competition; read-out: Ki
T1 construct: purchased CHEMICON HTS066M
T1 sequence (P49146 1-381): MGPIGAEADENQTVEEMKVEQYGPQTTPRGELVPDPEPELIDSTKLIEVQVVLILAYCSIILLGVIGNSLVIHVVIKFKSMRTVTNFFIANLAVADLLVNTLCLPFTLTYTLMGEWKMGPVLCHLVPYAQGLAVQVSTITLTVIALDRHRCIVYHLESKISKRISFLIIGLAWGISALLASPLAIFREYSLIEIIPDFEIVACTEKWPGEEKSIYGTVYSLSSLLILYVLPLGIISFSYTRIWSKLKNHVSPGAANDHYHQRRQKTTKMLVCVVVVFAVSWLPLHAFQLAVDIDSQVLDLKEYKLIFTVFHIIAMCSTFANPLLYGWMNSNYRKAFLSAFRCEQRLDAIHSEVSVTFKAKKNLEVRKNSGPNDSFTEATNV
In short: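 IC50 values come from sigmoidal dose-response fits of scintillation counts after peptides competed for radioligand binding at receptor membranes (0.5 μg protein/well). Incubation ran 2 h at room temperature in HEPES buffer, pH 7.4, with Mg2+, Ca2+ and 0.2% ovalbumin.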

Solubility determination = conditions: for Sol6: pH 6; for Sol7: pH 7
In short: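 Solubility is derived from the ratio of reversed-phase peak areas, filtered sample over a control dissolved at 1 mg/ml in 50% acetonitrile. Peptides are agitated for 2 hours at room temperature in 0.1 M sodium diphosphate at pH 6.4 or 7.0, aiming at 10 mg/ml.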

| Structure (SMILES) | Ki [1] | Sol6 (Solubility determination) | Sol7 (Solubility determination) |
| --- | --- | --- | --- |
| CC(C)CC(=O)N[C@@H](C)C(=O)N1CCC[C@H]1C(=O)N[C@@H](C)C(=O)N[C@@H](CCCCNC(=O)CCCCCNC(=O)CC[C@H](NC(=O)CCCCCCCCCCCCCCCCC(=O)O)C(=O)O)C(=O)N1CCC[C@H]1C(=O)N[C@@H](CCC(=O)O)C(=O)N[C@@H](CCC(=O)O)C(=O)N[C@@H](CC(=O)O)C(=O)N[C@@H](C)C(=O)N[C@@H](CO)C(=O)N1CCC[C@H]1C(=O)N[C@@H](CCC(=O)O)C(=O)N[C@@H](CCC(=O)O)C(=O)N[C@@H](CC(C)C)C(=O)N[C@@H](CCC(N)=O)C(=O)N[C@@H](CCCNC(=N)N)C(=O)N[C@@H](Cc1ccc(O)cc1)C(=O)N[C@@H](Cc1ccc(O)cc1)C(=O)N[C@H](C(=O)N[C@@H](CO)C(=O)N[C@@H](CC(C)C)C(=O)N[C@@H](CCCNC(=N)N)C(=O)N[C@@H](Cc1c[nH]cn1)C(=O)N[C@@H](CCC(N)=O)C(=O)N[C@@H](Cc1ccc(O)cc1)C(=O)N[C@@H](CC(N)=O)C(=O)N[C@@H](Cc1c[nH]c2ccccc12)C(=O)N[C@@H](CC(C)C)C(=O)N[C@H](C(=O)N[C@@H](CCCNC(=N)N)C(=O)N[C@@H](CCC(N)=O)C(=O)N[C@@H](CCCNC(=N)N)C(=O)N[C@@H](Cc1ccc(O)cc1)C(N)=O)[C@@H](C)O)C(C)C [Compound 32, N{alpha-4}-(3-methylbutanoyl)-N{epsilon-7}-(6-[(4S)-4-carboxy-4-(17-carboxyheptadecanamido)butanamido]hexanoyl)[4A,6A,7K,9E,18Q,22V,27Q,28Y,30W,31L]-hPYY(4-36)] | 13.6 nM | 8.2 mg/mL | 9.3 mg/mL |
| CC[C@H](C)[C@H](NC(=O)[C@H](CCC(=O)O)NC(=O)[C@H](CCC(=O)O)NC(=O)[C@@H]1CCCN1C(=O)[C@@H](NC(=O)[C@H](C)NC(=O)[C@H](C)NC(=O)[C@H](CCC(=O)O)NC(=O)[C@H](CCC(=O)O)NC(=O)[C@@H]1CCCN1C(=O)[C@H](CCCCNC(=O)CCCCCNC(=O)CC[C@H](NC(=O)CCCCCCCCCCCCCCCCC(=O)O)C(=O)O)NC(=O)[C@H](CCC(=O)O)NC(=O)[C@@H]1CCCN1C(=O)[C@H](C)NC(=O)CC(C)C)[C@@H](C)O)C(=O)N[C@@H](CCC(N)=O)C(=O)N[C@@H](CCCNC(=N)N)C(=O)N[C@@H](Cc1ccc(O)cc1)C(=O)N[C@@H](Cc1ccc(O)cc1)C(=O)N[C@H](C(=O)N[C@@H](C)C(=O)N[C@@H](CC(C)C)C(=O)N[C@@H](CCCNC(=N)N)C(=O)N[C@@H](Cc1c[nH]cn1)C(=O)N[C@@H](Cc1ccc(O)cc1)C(=O)N[C@@H](Cc1ccc(O)cc1)C(=O)N[C@@H](CC(N)=O)C(=O)N[C@@H](Cc1c[nH]c2ccccc12)C(=O)N[C@@H](CC(C)C)C(=O)N[C@H](C(=O)N[C@@H](CCCNC(=N)N)C(=O)N[C@@H](CCC(N)=O)C(=O)N[C@@H](CCCNC(=N)N)C(=O)N[C@@H](Cc1ccc(O)cc1)C(N)=O)[C@@H](C)O)C(C)C [Compound 154, N{alpha-4}-(3-methylbutanoyl)-N{epsilon-7}-(6-[(4S)-4-carboxy-4-(17-carboxyheptadecanamido)butanamido]hexanoyl)-[4A,7K,9E,11A,13T,17I,18Q,22V,23A,28Y,30W,31L]-hPYY(4-36)] | 3.71 nM | 8.3 mg/mL | >10.0 mg/mL |
| CC[C@H](C)[C@H](NC(=O)[C@H](CCC(=O)O)NC(=O)[C@H](CCC(=O)O)NC(=O)[C@@H]1CCCN1C(=O)[C@@H](NC(=O)[C@H](C)NC(=O)[C@H](CC(=O)O)NC(=O)[C@H](CCC(=O)O)NC(=O)[C@H](CCC(=O)O)NC(=O)[C@@H]1CCCN1C(=O)[C@H](CCCCNC(=O)CCCCCNC(=O)CC[C@H](NC(=O)CCCCCCCCCCCCCCCCC(=O)O)C(=O)O)NC(=O)[C@H](CCC(=O)O)NC(=O)[C@@H]1CCCN1C(=O)[C@H](C)NC(=O)CC(C)C)[C@@H](C)O)C(=O)N[C@@H](CCC(N)=O)C(=O)N[C@@H](CCCNC(=N)N)C(=O)N[C@@H](Cc1ccc(O)cc1)C(=O)N[C@@H](Cc1ccc(O)cc1)C(=O)N1CCC[C@H]1C(=O)N[C@@H](CO)C(=O)N[C@@H](CC(C)C)C(=O)N[C@@H](CCCNC(=N)N)C(=O)N[C@@H](Cc1c[nH]cn1)C(=O)N[C@@H](Cc1ccc(O)cc1)C(=O)N[C@@H](Cc1ccc(O)cc1)C(=O)N[C@@H](CC(N)=O)C(=O)N[C@@H](Cc1c[nH]c2ccccc12)C(=O)N[C@@H](CC(C)C)C(=O)N[C@H](C(=O)N[C@@H](CCCNC(=N)N)C(=O)N[C@@H](CCC(N)=O)C(=O)N[C@@H](CCCNC(=N)N)C(=O)N[C@@H](Cc1ccc(O)cc1)C(N)=O)[C@@H](C)O [Compound 17, N{alpha-4}-(3-methylbutanoyl)-N{epsilon-7}-(6-[(4S)-4-carboxy-4-(17-carboxyheptadecanamido)butanamido]hexanoyl)[4A,7K,9E,13T,17I,18Q,22P,28Y,30W,31L]-hPYY(4-36)] | 24.6 nM | 10.0 mg/mL | 10.0 mg/mL |

Compounds with a lower Ki [1], results first:

| Ki [1] | Sol6 (Solubility determination) | Sol7 (Solubility determination) | Structure (SMILES) |
| --- | --- | --- | --- |
| 2.14 nM | 0.0 mg/mL | 0.0 mg/mL | CC[C@H](C)[C@H](NC(=O)[C@H](CCC(=O)O)NC(=O)[C@H](CCC(=O)O)NC(=O)[C@@H]1CCCN1C(=O)[C@H](CCC(=O)O)NC(=O)[C@H](C)NC(=O)[C@H](C)NC(=O)[C@H](C)NC(=O)[C@H](CCC(=O)O)NC(=O)[C@@H]1CCCN1C(=O)[C@H](CCCCNC(=O)CCCCCNC(=O)CC[C@H](NC(=O)CCCCCCCCCCCCCCCCC(=O)O)C(=O)O)NC(=O)[C@H](C)NC(=O)[C@@H]1CCCN1C(=O)[C@H](C)NC(=O)CC(C)C)C(=O)N[C@@H](CCC(N)=O)C(=O)N[C@@H](CCCNC(=N)N)C(=O)N[C@@H](Cc1ccc(O)cc1)C(=O)N[C@@H](Cc1ccc(O)cc1)C(=O)N[C@H](C(=O)N[C@@H](CO)C(=O)N[C@@H](CC(C)C)C(=O)N[C@@H](CCCNC(=N)N)C(=O)N[C@@H](Cc1c[nH]cn1)C(=O)N[C@@H](Cc1ccc(O)cc1)C(=O)N[C@@H](Cc1ccc(O)cc1)C(=O)N[C@@H](CC(N)=O)C(=O)N[C@@H](Cc1c[nH]c2ccccc12)C(=O)N[C@@H](CC(C)C)C(=O)N[C@H](C(=O)N[C@@H](CCCNC(=N)N)C(=O)N[C@@H](CCC(N)=O)C(=O)N[C@@H](CCCNC(=N)N)C(=O)N[C@@H](Cc1ccc(O)cc1)C(N)=O)[C@@H](C)O)C(C)C [Compound 111, N{alpha-4}-(3-methylbutanoyl)-N{epsilon-7}-(6-[(4S)-4-carboxy-4-(17-carboxyheptadecanamido)butanamido]hexanoyl)-[4A,6A,7K,9E,10A,11A,13E,17I,18Q,22V,28Y,30W,31L]-hPYY(4-36)] (Isovaleryl-APAK([Ahx-γGlu-C18 diacid])PEAAAEPEEIQRYYVSLRHYYNWLTRQRY-NH2) |
| 2.07 nM | 8.3 mg/mL | 9.6 mg/mL | CC(C)CC(=O)N[C@@H](C)C(=O)N1CCC[C@H]1C(=O)N[C@@H](C)C(=O)N[C@@H](CCCCNC(=O)CCCCCNC(=O)CC[C@H](NC(=O)CCCCCCCCCCCCCCCCC(=O)O)C(=O)O)C(=O)N1CCC[C@H]1C(=O)N[C@@H](CCC(=O)O)C(=O)N[C@@H](CCC(=O)O)C(=O)N[C@@H](CC(=O)O)C(=O)N[C@@H](C)C(=O)N[C@H](C(=O)N1CCC[C@H]1C(=O)N[C@@H](CCC(=O)O)C(=O)N[C@@H](CCC(=O)O)C(=O)N[C@@H](C)C(=O)N[C@@H](CCC(N)=O)C(=O)N[C@@H](CCCNC(=N)N)C(=O)N[C@@H](Cc1ccc(O)cc1)C(=O)N[C@@H](Cc1ccc(O)cc1)C(=O)N[C@H](C(=O)N[C@@H](CO)C(=O)N[C@@H](CC(C)C)C(=O)N[C@@H](CCCNC(=N)N)C(=O)N[C@@H](Cc1c[nH]cn1)C(=O)N[C@@H](Cc1ccc(O)cc1)C(=O)N[C@@H](Cc1ccc(O)cc1)C(=O)N[C@@H](CC(N)=O)C(=O)N[C@@H](Cc1c[nH]c2ccccc12)C(=O)N[C@@H](CC(C)C)C(=O)N[C@H](C(=O)N[C@@H](CCCNC(=N)N)C(=O)N[C@@H](CCC(N)=O)C(=O)N[C@@H](CCCNC(=N)N)C(=O)N[C@@H](Cc1ccc(O)cc1)C(N)=O)[C@@H](C)O)C(C)C)[C@@H](C)O [Compound 57, N{alpha-4}-(3-methylbutanoyl)-N{epsilon-7}-(6-[(4S)-4-carboxy-4-(17-carboxyheptadecanamido)butanamido]hexanoyl)-[4A,6A,7K,9E,13T,17A,18Q,22V,28Y,30W,31L]-hPYY(4-36)] |
